Measurements taken from patent US20190185518A9, “WARHEAD-CONTAINING PEPTIDOMIMETIC MACROCYCLES AS MODULATORS OF BFL-1” (AILERON Therapeutics, Inc., priority 2017, published 2019).
Positions of bridges follow the written chain, without caps; N, C: chain ends. Non-standard residues stand in square brackets, D forms with d. Residues, ends and D or L forms follow the SMILES beside them. ξ: configuration not given here. Gly(1-adamantyl) = N[C@H](C(=O)O)C12CC3CC(CC(C3)C1)C2; hCha = N[C@@H](CCC1CCCCC1)C(=O)O; R8 = C=CCCCCCC[C@@](C)(N)C(=O)O; Cit = NC(=O)NCCC[C@H](N)C(=O)O; αMeL = CC(C)C[C@](C)(N)C(=O)O; Chg = N[C@H](C(=O)O)C1CCCCC1; ξαMeD = CC(N)(CC(=O)O)C(=O)O; S5 = C=CCCC[C@](C)(N)C(=O)O; Aib = CC(C)(N)C(=O)O

Columns and labels:
Bcl-xL = Bcl-xL (Homo sapiens, UniProt Q07817); assay: Ki determination for Bcl-xL (BCL-2 family binding spectrum); conditions: read-out: Ki BCL-XL
Description: (§1) To assess the binding and affinity of compounds that antagonize the interaction between a peptide and an acceptor protein, a fluorescence polarization assay (FPA) utilizing a fluoresceinated peptidomimetic macrocycle derived from a peptidomimetic precursor sequence is used, for example. The FPA technique measures the molecular orientation and mobility using polarized light and fluorescent tracer. […] A compound that antagonizes the interaction between the fluoresceinated peptidomimetic macrocycle and an acceptor protein will be detected in a competitive binding FPA experiment.
(§2) For example, putative antagonist compounds (1 nM to 1 mM) and a fluoresceinated peptidomimetic macrocycle (25 nM) are incubated with the acceptor protein (50 nM) in binding buffer (140 mM NaCl, 50 mM Tris-HCL, pH 7.4) for 30 minutes at room temperature. Antagonist binding activity is measured, for example, by fluorescence polarization on a luminescence spectrophotometer (e.g. Perkin-Elmer LS50B). Kd values may be determined by nonlinear regression analysis using, for example, Graphpad Prism software (GraphPad Software, Inc., San Diego, Calif.).

Bcl-2 = Bcl-2 (Homo sapiens, UniProt P10415); assay: Ki determination for Bcl-2 (BCL-2 family binding spectrum); conditions: read-out: Ki BCL-2
Description: as §1, §2

Mcl-1 = Mcl-1 (Homo sapiens, UniProt Q07820); assay: Ki determination for Mcl-1 (BCL-2 family binding spectrum); conditions: read-out: Ki MCL-1
Procedure, shortened: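 Competitive fluorescence polarization assay in which compounds displace a fluoresceinated peptidomimetic macrocycle tracer from Mcl-1. Affinity constants were obtained by nonlinear regression.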

Sequence of Bcl-2 (P10415 whole entry, species assumed): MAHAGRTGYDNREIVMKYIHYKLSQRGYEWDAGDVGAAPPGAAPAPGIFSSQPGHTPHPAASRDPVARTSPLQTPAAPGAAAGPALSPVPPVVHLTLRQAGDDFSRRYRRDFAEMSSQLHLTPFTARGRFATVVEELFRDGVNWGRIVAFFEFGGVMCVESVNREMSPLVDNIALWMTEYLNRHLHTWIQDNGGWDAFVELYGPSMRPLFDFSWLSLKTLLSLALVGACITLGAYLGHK
Sequence of Bcl-xL (Q07817 whole entry, species assumed): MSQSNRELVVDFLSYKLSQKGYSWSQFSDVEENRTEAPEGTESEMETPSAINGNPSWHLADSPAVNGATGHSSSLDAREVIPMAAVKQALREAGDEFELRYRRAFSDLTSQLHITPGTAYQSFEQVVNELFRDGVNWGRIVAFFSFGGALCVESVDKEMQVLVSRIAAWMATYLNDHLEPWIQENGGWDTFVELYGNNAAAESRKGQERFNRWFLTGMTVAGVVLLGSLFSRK
Sequence of Mcl-1 (Q07820 whole entry, species assumed): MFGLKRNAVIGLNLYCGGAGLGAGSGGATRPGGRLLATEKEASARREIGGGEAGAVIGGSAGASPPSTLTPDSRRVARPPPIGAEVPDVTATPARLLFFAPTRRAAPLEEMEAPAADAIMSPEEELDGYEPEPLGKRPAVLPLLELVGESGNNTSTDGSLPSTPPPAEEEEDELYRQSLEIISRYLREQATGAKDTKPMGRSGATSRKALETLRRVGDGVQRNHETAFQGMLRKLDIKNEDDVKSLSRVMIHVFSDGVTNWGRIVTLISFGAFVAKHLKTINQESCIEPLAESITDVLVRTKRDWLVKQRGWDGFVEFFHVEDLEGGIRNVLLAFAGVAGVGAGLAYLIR

| SMILES | Ki (Bcl-xL) | Ki (Bcl-2) | Ki (Mcl-1) |
| --- | --- | --- | --- |
| CC[C@H](C)[C@H](NC(C)=O)C(=O)N[C@@H](Cc1c[nH]c2ccccc12)C(=O)N[C@H](C(=O)N[C@@H](Cc1ccccc1)C(=O)N[C@@H](C)C(=O)N[C@@H](C)C(=O)N[C@@H](CC(C)C)C(=O)N[C@@H](CCCNC(=N)N)C(=O)N[C@]1(C)CCCCCCC=CCCC[C@@](C)(C(=O)N[C@@H](Cc2ccc(O)cc2)C(=O)N[C@@H](Cc2ccc(O)cc2)C(=O)N[C@@H](C)C(N)=O)NC(=O)[C@H](CC(N)=O)NC(=O)[C@H](Cc2ccccc2)NC(=O)[C@H](C)NC(=O)[C@H](CC(=O)O)NC(=O)CNC(=O)[C@H]([C@@H](C)CC)NC1=O)[C@@H](C)CC [compound 1735] (Ac-IWIFAALR[R8]IGDAFN[S5]YYA-NH2; staple 9-16) | 110 nM | 125 nM | – |
| CC[C@H](C)[C@H](NC(C)=O)C(=O)N[C@@H](Cc1c[nH]c2ccccc12)C(=O)N[C@H](C(=O)N[C@@H](C)C(=O)N[C@@H](CCC(N)=O)C(=O)N[C@@H](C)C(=O)N[C@@H](CCC1CCCCC1)C(=O)N[C@@H](CCCNC(=N)N)C(=O)N[C@]1(C)CCCCCCC=CCCC[C@@](C)(C(=O)N[C@@H](Cc2ccc(O)cc2)C(=O)N[C@@H](Cc2ccc(O)cc2)C(=O)N[C@@H](C)C(N)=O)NC(=O)[C@H](CC(N)=O)NC(=O)[C@H](Cc2ccccc2)NC(=O)[C@H](C)NC(=O)[C@H](CC(=O)O)NC(=O)CNC(=O)[C@H]([C@@H](C)CC)NC1=O)[C@@H](C)CC [compound 1690] (Ac-IWIAQA[hCha]R[R8]IGDAFN[S5]YYA-NH2; staple 9-16) | > 1000 nM | > 1000 nM | 3.8 nM |
| CC[C@H](C)[C@H](NC(C)=O)C(=O)N[C@@H](Cc1c[nH]c2ccccc12)C(=O)N[C@H](C(=O)N[C@@H](C)C(=O)N[C@@H](CCC(N)=O)C(=O)N[C@@H](C)C(=O)N[C@@H](CC(C)C)C(=O)N[C@@H](CCCNC(N)=O)C(=O)N[C@]1(C)CCCCCCC=CCCC[C@@](C)(C(=O)N[C@@H](Cc2ccc(O)cc2)C(=O)N[C@@H](Cc2ccc(O)cc2)C(=O)N[C@@H](C)C(N)=O)NC(=O)[C@H](CC(N)=O)NC(=O)[C@H](Cc2ccccc2)NC(=O)[C@H](CCC(N)=O)NC(=O)[C@H](CC(=O)O)NC(=O)CNC(=O)[C@H]([C@@H](C)CC)NC1=O)[C@@H](C)CC [compound 1656] (Ac-IWIAQAL[Cit][R8]IGDQFN[S5]YYA-NH2; staple 9-16) | 28.8 nM | 88.2 nM | 1.7 nM |
| CC[C@H](C)[C@H](NC(C)=O)C(=O)N[C@@H](Cc1c[nH]c2ccccc12)C(=O)N[C@H](C(=O)NC(C)(C)C(=O)N[C@@H](CCC(N)=O)C(=O)N[C@@H](C)C(=O)N[C@@H](CC(C)C)C(=O)N[C@@H](CCCNC(=N)N)C(=O)N[C@]1(C)CCCCCCC=CCCC[C@@](C)(C(=O)N[C@@H](Cc2ccc(O)cc2)C(=O)N[C@@H](Cc2ccc(O)cc2)C(=O)N[C@@H](C)C(N)=O)NC(=O)[C@H](CC(N)=O)NC(=O)[C@H](Cc2ccccc2)NC(=O)[C@H](C)NC(=O)C(C)(CC(=O)O)NC(=O)CNC(=O)[C@H]([C@@H](C)CC)NC1=O)[C@@H](C)CC (stereo partly drawn) [compound 1707] (Ac-IWI[Aib]QALR[R8]IG[ξαMeD]AFN[S5]YYA-NH2; staple 9-16) | > 1000 nM | > 1000 nM | > 1000 nM |
| CC[C@H](C)[C@H](NC(C)=O)C(=O)N[C@@H](C)C(=O)N[C@@H](CCC(N)=O)C(=O)N[C@@H](C)C(=O)N[C@@H](CC(C)C)C(=O)N[C@@H](C)C(=O)N[C@]1(C)CCCCCCC=CCCC[C@@](C)(C(=O)N[C@@H](Cc2ccc(O)cc2)C(=O)N[C@@H](Cc2ccc(O)cc2)C(=O)N[C@@H](C)C(N)=O)NC(=O)[C@H](CC(N)=O)NC(=O)[C@H](Cc2ccccc2)NC(=O)[C@H](C)NC(=O)[C@H](CC(=O)O)NC(=O)CNC(=O)[C@H]([C@@H](C)CC)NC1=O [compound 1637] (Ac-IAQALA[R8]IGDAFN[S5]YYA-NH2; staple 7-14) | > 1000 nM | > 1000 nM | – |
| CC[C@H](C)[C@H](NC(C)=O)C(=O)N[C@@H](C)C(=O)N[C@@H](CCC(N)=O)C(=O)N[C@@H](C)C(=O)N[C@@H](CC(C)C)C(=O)N[C@@H](CCCNC(=N)N)C(=O)N[C@]1(C)CCCCCCC=CCCC[C@@](C)(C(=O)N[C@@H](Cc2ccc(O)cc2)C(=O)N[C@@H](Cc2ccc(O)cc2)C(=O)N[C@@H](C)C(N)=O)NC(=O)[C@H](CC(N)=O)NC(=O)[C@H](C)NC(=O)[C@H](C)NC(=O)[C@H](CC(=O)O)NC(=O)CNC(=O)[C@H]([C@@H](C)CC)NC1=O [compound 1639] (Ac-IAQALR[R8]IGDAAN[S5]YYA-NH2; staple 7-14) | > 1000 nM | > 1000 nM | – |
| CC[C@H](C)[C@H](NC(C)=O)C(=O)N[C@@H](Cc1c[nH]c2ccccc12)C(=O)N[C@H](C(=O)N[C@@H](C)C(=O)N[C@@H](CCC(N)=O)C(=O)N[C@@H](C)C(=O)N[C@H](C(=O)N[C@@H](CCCNC(=N)N)C(=O)N[C@]1(C)CCCCCC/C=C\CCC[C@@](C)(C(=O)N[C@@H](Cc2ccc(O)cc2)C(=O)N[C@@H](Cc2ccc(O)cc2)C(=O)N[C@@H](C)C(N)=O)NC(=O)[C@H](CC(N)=O)NC(=O)[C@H](Cc2ccccc2)NC(=O)[C@H](C)NC(=O)[C@H](CC(=O)O)NC(=O)CNC(=O)[C@H]([C@@H](C)CC)NC1=O)C12CC3CC(CC(C3)C1)C2)[C@@H](C)CC [compound 1689] (Ac-IWIAQA[Gly(1-adamantyl)]R[R8]IGDAFN[S5]YYA-NH2; staple (Z) 9-16) | 110 nM | > 1000 nM | – |
| CC[C@H](C)[C@H](NC(C)=O)C(=O)N[C@@H](Cc1c[nH]c2ccccc12)C(=O)N[C@H](C(=O)N[C@@H](C)C(=O)N[C@@H](CCC(N)=O)C(=O)N[C@@H](C)C(=O)N[C@@H](CC(C)C)C(=O)N[C@@H](CCCNC(N)=O)C(=O)N[C@]1(C)CCCCCCC=CCCC[C@@](C)(C(=O)N[C@@H](Cc2ccc(O)cc2)C(=O)N[C@@H](Cc2ccc(O)cc2)C(=O)N[C@@H](C)C(N)=O)NC(=O)[C@H](CC(N)=O)NC(=O)[C@H](C(C)C)NC(=O)[C@H](C)NC(=O)[C@H](CC(=O)O)NC(=O)CNC(=O)[C@H]([C@@H](C)CC)NC1=O)[C@@H](C)CC [compound 1774] (Ac-IWIAQAL[Cit][R8]IGDAVN[S5]YYA-NH2; staple 9-16) | > 1000 nM | > 1000 nM | – |
| CC[C@H](C)[C@H](NC(C)=O)C(=O)N[C@@H](Cc1c[nH]c2ccccc12)C(=O)N[C@H](C(=O)N[C@@H](C)C(=O)N[C@@H](CCC(N)=O)C(=O)N[C@@H](C)C(=O)N[C@@H](CC(C)C)C(=O)N[C@@H](CCCNC(N)=O)C(=O)N[C@]1(C)CCCCCCC=CCCC[C@@](C)(C(=O)N[C@@H](Cc2ccc(O)cc2)C(=O)N[C@@H](Cc2ccc(O)cc2)C(=O)N[C@@H](C)C(N)=O)NC(=O)[C@H](CC(N)=O)NC(=O)[C@H](C)NC(=O)[C@H](C)NC(=O)[C@H](CC(=O)O)NC(=O)CNC(=O)[C@H]([C@@H](C)CC)NC1=O)[C@@H](C)CC [compound 1773] (Ac-IWIAQAL[Cit][R8]IGDAAN[S5]YYA-NH2; staple 9-16) | > 1000 nM | > 1000 nM | – |
| CC[C@H](C)[C@H](NC(C)=O)C(=O)N[C@@H](Cc1c[nH]c2ccccc12)C(=O)N[C@H](C(=O)N[C@@H](C)C(=O)N[C@@H](CCC(N)=O)C(=O)N[C@@H](C)C(=O)N[C@@](C)(CC(C)C)C(=O)N[C@@H](CCCNC(=N)N)C(=O)N[C@]1(C)CCCCCCC=CCCC[C@@](C)(C(=O)N[C@@H](Cc2ccc(O)cc2)C(=O)N[C@@H](Cc2ccc(O)cc2)C(=O)N[C@@H](C)C(N)=O)NC(=O)[C@H](CC(N)=O)NC(=O)[C@H](Cc2ccccc2)NC(=O)[C@H](C)NC(=O)[C@H](CC(=O)O)NC(=O)CNC(=O)[C@H]([C@@H](C)CC)NC1=O)[C@@H](C)CC [compound 1767] (Ac-IWIAQA[αMeL]R[R8]IGDAFN[S5]YYA-NH2; staple 9-16) | > 1000 nM | > 1000 nM | – |
| CC[C@H](C)[C@H](NC(C)=O)C(=O)N[C@@H](C)C(=O)N[C@@H](CCC(N)=O)C(=O)N[C@@H](C)C(=O)N[C@@H](CC(C)C)C(=O)N[C@@H](CCCNC(=N)N)C(=O)N[C@]1(C)CCCCCCC=CCCC[C@@](C)(C(=O)N[C@@H](Cc2ccc(O)cc2)C(=O)N[C@@H](C)C(=O)N[C@@H](C)C(N)=O)NC(=O)[C@H](CC(N)=O)NC(=O)[C@H](Cc2ccccc2)NC(=O)[C@H](C)NC(=O)[C@H](CC(=O)O)NC(=O)CNC(=O)[C@H]([C@@H](C)CC)NC1=O [compound 1632] (Ac-IAQALR[R8]IGDAFN[S5]YAA-NH2; staple 7-14) | > 1000 nM | > 1000 nM | – |
| CC[C@H](C)[C@H](NC(C)=O)C(=O)N[C@@H](Cc1c[nH]c2ccccc12)C(=O)N[C@H](C(=O)N[C@@H](C)C(=O)N[C@@H](CCC(N)=O)C(=O)N[C@@H](C)C(=O)N[C@@H](CC(C)C)C(=O)N[C@@H](CCCNC(=N)N)C(=O)N[C@]1(C)CCCCCCC=CCCC[C@@](C)(C(=O)N[C@@H](Cc2ccc(O)cc2)C(=O)N[C@@H](Cc2ccc(O)cc2)C(=O)N[C@@H](C)C(N)=O)NC(=O)[C@H](CC(N)=O)NC(=O)[C@H](Cc2ccccc2)NC(=O)[C@H](C)NC(=O)[C@H](CC(=O)O)NC(=O)CNC(=O)[C@H]([C@@H](C)CC)NC1=O)C1CCCCC1 [compound 1713] (Ac-IW[Chg]AQALR[R8]IGDAFN[S5]YYA-NH2; staple 9-16) | – | 38.9 nM | 4.6 nM |
